Patent US6486185B1, “3-heteroarylidene-2-indolinone protein kinase inhibitors” (Sugen, Inc., priority 1997, dated 2002)

Target: T1, IGF-1R (Homo sapiens, UniProt P08069)
T1 construct: expressed in transfected cells; host or cells: NIH3T3 (3T3/IGF-1R)
Assay: IGF-I receptor ELISA in 3T3/IGF-1R cells
Assay type: cell-based
Settings: 50% inhibition of PTK activity over control
Description: The cellular/catalytic assays described herein are performed in an ELISA format. The general procedure is a follows: a compound is introduced to cells expressing the test kinase, either naturally or recombinantly, for some period of time after which, if the test kinase is a receptor, a ligand known to activate the receptor's activity is added. The cells are lysed and the lysate is transferred to the wells of an ELISA plate previously coated with a specific antibody recognizing the substrate of the enzymatic phosphorylation reaction. Non-substrate components of the cell lysate are washed away and the amount of phosphorylation on the substrate is detected with an antibody specifically recognizing phosphotyrosine compared with control cells that were not contacted with a test compound.
The following protocol may be used to measure phosphotyrosine level on IGF-I receptor, which indicates IGF-I receptor tyrosine kinase activity.
The following materials and reagents are used:
a. The cell line used in this assay is 3T3/IGF-1R, a cell line genetically engineered to overexpresses IGF-1 receptor.
b. NIH3T3/IGF-1R is grown in an incubator with 5% CO2 at 37° C. The growth media is DMEM+10% FBS (heat inactivated)+2 mM L-glutamine.
c. Affinity purified anti-IGF-1R antibody 17-69.
e. Blocking Buffer: TBST plus 5% Milk (Carnation Instant Non-Fat Dry Milk).
Stock solution of TBS (10×) is prepared, and Triton X-100 is added to the buffer during dilution.
Stock solution (5×) is prepared and kept at 4° C.
h. EDTA/HCl: 0.5 M pH 7.0 (NaOH) as 100×stock.
i. Na3VO4: 0.5 M as 100×stock and aliquots are kept in −80° C.
k. Insulin-like growth factor-1 from Promega (Cat# G5111).
l. Rabbit polyclonal anti-phosphotyrosine antiserum.
m. Goat anti-rabbit IgG, POD conjugate (detection antibody), Tago (Cat. No. 4520, Lot No. 1802): Tago, Inc., Burlingame, Calif.
n. ABTS (2,2′-azinobis(3-ethylbenzthiazolinesulfonic acid)) solution:
ABTS solution should be kept in dark and 4° C. The solution should be discarded when it turns green.
o. Hydrogen Peroxide: 30% solution is kept in the dark and at 4° C.
All the following steps are conducted at room temperature unless it is specifically indicated. All ELISA plate washings are performed by rinsing the plate with tap water three times, followed by one TBST rinse. Pat plate dry with paper towels.
1. The cells, grown in tissue culture dish (Corning 25020-100) to 80-90% confluence, are harvested with Trypsin-EDTA (0.25%, 0.5 mL/D-100, GIBCO).
2. Resuspend the cells in fresh DMEM+10% FBS+2 mM L-Glutamine, and transfer to 96-well tissue culture plate (Corning, 25806-96) at 20,000 cells/well (100 μL/well). Incubate for 1 day then replace medium to serum-free medium (90/μL) and incubate in 5% CO2 and 37° C. overnight.
B. ELISA Plate Coating and Blocking:
1. Coat the ELISA plate (Corning 25805-96) with Anti-IGF-1R Antibody at 0.5 μg/well in 100 μL PBS at least 2 hours.
2. Remove the coating solution, and replace with 100 μL Blocking Buffer, and shake for 30 minutes. Remove the blocking buffer and wash the plate just before adding lysate.
1. The drugs are tested in serum-free condition.
2. Dilute drug stock (in 100% DMSO) 1:10 with DMEM in 96-well poly-propylene plate, and transfer 10 μL/well of this solution to the cells to achieve final drug dilution 1:100, and final DMSO concentration of 1.0%. Incubate the cells in 5% CO2 at 37° C. for 2 hours.
3. Prepare fresh cell lysis buffer (HNTG*)
4. After drug incubation for two hours, transfer 10 μL/well of 200 nM IGF-1 Ligand in PBS to the cells (Final Conc.=20 nM), and incubate at 5% CO2 at 37° C. for 10 minutes.
5. Remove media and add 100 μL/well HNTG* and shake for 10 minutes. Look at cells under microscope to see if they are adequately lysed.
6. Use a 12-channel pipette to scrape the cells from the plate, and homogenize the lysate.by repeated aspiration and dispensing. Transfer all the lysate to the antibody coated ELISA plate, and shake for 1 hour.
7. […]

T1 sequence (P08069 31-1367, species assumed): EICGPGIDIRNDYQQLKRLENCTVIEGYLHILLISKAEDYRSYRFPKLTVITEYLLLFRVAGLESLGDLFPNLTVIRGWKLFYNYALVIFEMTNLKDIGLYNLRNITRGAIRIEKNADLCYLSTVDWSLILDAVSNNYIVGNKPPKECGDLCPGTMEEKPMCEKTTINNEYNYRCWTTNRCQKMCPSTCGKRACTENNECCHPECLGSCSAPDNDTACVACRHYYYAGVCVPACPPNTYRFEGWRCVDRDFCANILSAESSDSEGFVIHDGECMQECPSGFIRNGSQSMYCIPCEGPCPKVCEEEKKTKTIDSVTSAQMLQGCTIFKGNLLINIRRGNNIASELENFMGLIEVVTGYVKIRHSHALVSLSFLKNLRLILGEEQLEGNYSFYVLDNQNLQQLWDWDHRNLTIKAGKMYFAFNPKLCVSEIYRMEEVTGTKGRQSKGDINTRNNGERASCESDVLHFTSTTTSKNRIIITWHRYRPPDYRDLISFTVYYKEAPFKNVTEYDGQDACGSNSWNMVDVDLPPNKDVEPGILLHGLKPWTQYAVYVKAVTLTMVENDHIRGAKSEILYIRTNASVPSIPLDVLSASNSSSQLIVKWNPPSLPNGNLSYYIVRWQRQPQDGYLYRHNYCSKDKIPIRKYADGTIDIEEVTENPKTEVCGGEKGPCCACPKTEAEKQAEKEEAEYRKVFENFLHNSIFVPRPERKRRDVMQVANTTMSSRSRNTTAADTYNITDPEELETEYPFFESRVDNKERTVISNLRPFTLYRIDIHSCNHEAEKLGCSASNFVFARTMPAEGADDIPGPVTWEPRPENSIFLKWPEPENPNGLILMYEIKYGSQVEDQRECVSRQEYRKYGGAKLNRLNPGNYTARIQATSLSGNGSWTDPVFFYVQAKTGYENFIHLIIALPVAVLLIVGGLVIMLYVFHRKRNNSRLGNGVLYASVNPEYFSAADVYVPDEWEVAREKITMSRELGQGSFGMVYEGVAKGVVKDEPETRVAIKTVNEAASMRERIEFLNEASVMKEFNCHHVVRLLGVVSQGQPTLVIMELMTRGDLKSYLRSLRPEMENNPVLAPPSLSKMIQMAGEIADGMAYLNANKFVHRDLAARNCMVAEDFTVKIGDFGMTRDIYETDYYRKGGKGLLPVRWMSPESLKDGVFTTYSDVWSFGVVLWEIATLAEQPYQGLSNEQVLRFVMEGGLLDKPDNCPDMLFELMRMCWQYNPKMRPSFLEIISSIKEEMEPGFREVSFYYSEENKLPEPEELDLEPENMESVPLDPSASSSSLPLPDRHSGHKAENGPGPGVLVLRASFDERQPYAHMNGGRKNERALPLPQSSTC

SMILES | IC50
COC(=O)Cc1c(Cl)[nH]c(C=C2C(=O)Nc3ccccc32)c1C(=O)OC [3-(2-chloro-4-methoxycarbonyl-3-methoxycarbonylmethylpyrrol-5-methylidenyl)-2-indolinone] | > 50 µM
COC(=O)CCc1c[nH]c(C=C2C(=O)Nc3ccccc32)c1C [3-[4-(2-methoxycarbonylethyl-3-methylpyrrol-2-methylidenyl]-2-indolinone] | > 100 µM
CCOC(=O)c1[nH]c(C=C2C(=O)Nc3ccccc32)c(C(C)=O)c1C [3-(4-acetyl-2-ethoxycarbonyl-3-methylpyrrol-5-methylidenyl)-2-indolinone] | > 10 µM
CCOC(=O)c1c[nH]c(C=C2C(=O)Nc3ccccc32)c1C [3-(4-ethoxycarbonyl-3-methylpyrrol-2-methylidenyl)-2-indolinone] | > 100 µM
Cc1c[nH]c(C=C2C(=O)Nc3ccccc32)c1CCC(=O)O [3-[3-(2-carboxyethyl-4-methylpyrrol-2-methylidenyl]-2-indolinone] | > 100 µM
CCOC(=O)CCc1c(C(=O)OCC)[nH]c(C=C2C(=O)Nc3ccccc32)c1CC(=O)OCC [3-[2-ethoxycarbonyl-3-(2-ethoxycarbonylethyl)-4-ethoxycarbonylmethyl)pyrrol-5-methylidenyl)-2-indolinone] | > 10 µM
COC(=O)CCc1c[nH]c(C=C2C(=O)Nc3cc(OC)c(OC)cc32)c1C [3-[4-(2-methoxycarbonylethyl)-3-methylpyrrol-2-methylidenyl]-5,6-dimethoxy-2-indolinone] | > 50 µM
CCOC(=O)c1c(C)[nH]c(C=C2C(=O)Nc3ccc(Br)cc32)c1C [3-(2,4-dimethyl-3-ethoxycarbonylpyrrol-5-methylidenyl)-5-bromo-2-indolinone] | > 100 µM
CC(=O)c1[nH]c(C=C2C(=O)Nc3ccccc32)c(C)c1C [3-(2-acetyl-3,4-dimethylpyrrol-5-methylidenyl)-2-indolinone] | > 100 µM
CCOC(=O)c1c(C)[nH]c(C=C2C(=O)Nc3ccc(NC(=O)c4ccc(C(=O)OC)cc4)cc32)c1C [3-(2,4-dimethyl-3-ethoxycarbonylpyrrol-5-methylidenyl)-5-(4-methoxycarbonylbenzamido)-2-indolinone] | > 10 µM
